Source: a compilation of properties of binary mixtures (doi:10.1016/j.molliq.2013.10.014)

Assay: xn = mol fraction of the nth substance listed
Settings: 100 kPa

CCCC[n+]1ccn(C)c1.O=S(=O)([O-])C(F)(F)F + c1ccccc1
viscosity [mPa·s]
Settings	x2 = 0	x2 = 0.122	x2 = 0.304	x2 = 0.353	x2 = 0.467	x2 = 0.573
298.15 K	–	–	37.2	32.8	19.8	–
308.15 K	56.4	–	–	22.6	14.22	9.37
318.15 K	38.3	29.2	18.23	16.33	–	–
328.15 K	27.3	21.2	–	12.3	–	5.71

CC[n+]1ccn(C)c1.O=S(=O)([N-]S(=O)(=O)C(F)(F)F)C(F)(F)F + c1ccccc1
viscosity [mPa·s]
Settings	x2 = 0	x2 = 0.135	x2 = 0.339	x2 = 0.471	x2 = 0.492
298.15 K	33	–	–	11.41	10.4
308.15 K	23.7	18.44	11.75	8.65	7.98
318.15 K	17.69	14.02	9.11	–	6.31
328.15 K	–	10.93	–	5.5	5.16

CCCC[n+]1ccn(C)c1.O=S(=O)([N-]S(=O)(=O)C(F)(F)F)C(F)(F)F + c1ccsc1
x2 = 0
Settings	viscosity [mPa·s]
298.15 K	51.32
308.15 K	34.4
318.15 K	24.4

c1ccccc1 + CC[n+]1ccn(C)c1.O=S(=O)([N-]S(=O)(=O)C(F)(F)F)C(F)(F)F
x1 = 1
Settings	viscosity [mPa·s]
298.15 K	0.605
308.15 K	0.527
318.15 K	0.466
328.15 K	0.363

c1ccccc1 + CCCC[n+]1ccn(C)c1.O=S(=O)([O-])C(F)(F)F
x1 = 1
Settings	viscosity [mPa·s]
298.15 K	0.605
328.15 K	0.363

c1ccsc1 + CCCC[n+]1ccn(C)c1.O=S(=O)([N-]S(=O)(=O)C(F)(F)F)C(F)(F)F
viscosity [mPa·s]
Settings	x1 = 0.089	x1 = 0.276	x1 = 0.336	x1 = 0.561	x1 = 0.77	x1 = 1
298.15 K	42.6	26.6	23.2	–	6.86	–
308.15 K	–	–	16.58	10.95	5.35	0.585
318.15 K	20.8	13.9	12.37	8.45	4.29	0.525
328.15 K	15.53	10.66	9.54	6.72	3.52	0.47
